Measurements reported in patent US20240309018A1, “THIAZOLE-LACTAM-SPIROHETEROCYCLIC COMPOUNDS AND APPLICATIONS THEREOF” (D3 BIO (WUXI) CO., LTD, priority 2021, published 2024).
Converted amounts (≈) assume the structure as drawn. Like-named read-outs stand apart in the source and are kept apart here.

Key:
ERK1 kinase = ERK1 kinase (Homo sapiens (Human), UniProt P27361); experiment: ERK1 in vitro kinase activity assay (33P-ATP, MBP substrate, filter-binding); assay type: biochemical
Protocol: (§1) The ability of the compound to inhibit ERK1 and ERK2 kinase activity was measured.
(§2) 20 mM Hepes (pH 7.5), 10 mM MgCl2, 1 mM ethylenebis(oxyethylenenitrilo)tetraacetic acid (EGTA), 0.02% Brij35, 0.02 mg/mL bovine serum albumin (BSA), 0.1 mM Na3VO4, 2 mM dithiothreitol (DTT), 1% DMSO.
(§3) The assay compound was dissolved in 100% DMSO to prepare a stock solution of specific concentration. The compound was serially diluted in DMSO solution using Integra Viaflo Assist smart pipette.
(§4) • 1) The substrate MBP was prepared in freshly prepared reaction buffer; • 2) ERK1 (or ERK2) kinase was added to the above-mentioned MBP solution and mixed gently; • 3) The compound dissolved in 100% DMSO was added to the kinase reaction system using ultrasound technology (Echo550; nanoliter range), and the mixture was incubated at room temperature for 20 minutes; • 4) 33P-ATP (specific concentration of […]) was added to the reaction system, and the reaction was started at this time; • 5) The mixture was incubated at room temperature for 2 hours; • 6) The amount of radioactivity was detected by filter-binding method; • 7) ERK1 (or ERK2) kinase activity was calculated as the ratio of the remaining kinase activity in the assay sample to the kinase activity of the control group (treated by DMSO). Curve was fitted using Prism (GraphPad software) and IC50 values were calculated. • 5.

[1] = In vivo PK study in beagle dogs; design: species or system beagle dog; conditions: male beagle dogs
Protocol: Male beagle dogs were used as assay animals. After a single administration, the plasma concentration of the compound was measured and the pharmacokinetic behavior was evaluated.
Five healthy adult male beagle dogs were selected, wherein 2 were in an intravenous injection group, and 3 were in an oral group. The vehicle in the intravenous injection group was 5% DMSO+95% (20% HP-β-CD). The compound to be assayed was mixed with an appropriate amount of vehicle for intravenous injection, and dissolved with stirring to prepare a clear solution of 0.4 mg/mL. The clear solution was filtered by a microporous membrane, and then ready for use. The vehicle in the oral group was 5% DMSO+95% (20% HP-β-CD). The compound to be assayed was mixed with the vehicle, and dissolved with stirring to prepare a solution of 0.3 mg/mL. […] were administered 1 mg/kg intravenously or 3 mg/kg orally, and then whole blood was collected for a certain period. Plasma was prepared. The drug concentration was analyzed by LC-MS/MS method, and the pharmacokinetic parameters were calculated by Phoenix WinNonlin software (Pharsight, USA).

[2] = Solubility study (HPLC-UV, phosphate buffers); assay type: physicochemical; conditions: 25 °C, aqueous buffer, kinetic from dmso stock, 25±2° C., 2% DMSO, theoretical maximum 200 μM
Protocol: The solubility of the compound was determined to evaluate the solubility property of the compound.
• 1) Buffer A (pH 2.0): 50 mM phosphate buffer, pH 2.0; Buffer B (pH 6.5): 50 mM phosphate buffer, pH 6.5: Buffer C (pH 7.4): 50 mM phosphate buffer, pH 7.4; • 2) Preparation of standard solution: • a) 50% acetonitrile solution and 50% buffer solution were mixed to obtain a diluent; • b) 10 mM (10 μL/compound) compound stock solution was added to the diluent (490 μL/compound) to obtain 200 μM detection standard solution; • c) The 200 μM UV detection standard solution was diluted with 10-fold and 200-fold volume of diluents to obtain 20 μM and 1 μM UV standard solutions, respectively; • d) UV standard solutions of 1 μM, 20 µM, and 200 μM were used as standard solutions for solubility assays.
• 1) The compound was dissolved in DMSO to prepare a 10 mM stock solution. […] The pH of the corresponding solubility solutions was 2.0, 6.5 and 7.4, respectively. The theoretical maximum concentration of the assay compound is 200 μM with 2% DMSO; • 3) The plate was shaken in a shaker at room temperature (25±2° C.) at 600 rpm for 24 hours; • 4) 200 μL of the solution was pipetted from the 96-well plate, filtered with suction by a vacuum suction filtration device, and transferred into a new 96-well plate as an assay sample; • 5) The compound concentration was determined using HPLC-UV.
• 6) Three UV standard solutions from low concentration to high concentration (1 μM, 20 μM, 200 μM) were injected into HPLC, and then the assay sample of the compound to be assayed was injected; • 7) The UV chromatographic peaks were integrated, and the solubility of the sample was calculated.

In vivo PK study in mice = experiment: In vivo PK study in mice; design: species or system mouse; conditions: female BALB/c mice
Description: Female BALB/c mice were used as assay animals to determine the blood concentration of the compound and evaluate the pharmacokinetic behavior after a single administration.
Four healthy adult female BALB/c mice were selected, wherein 2 mice were in an intravenous injection group and 2 mice were in an oral group. The vehicle in the intravenous injection group was 5% DMSO+95% (20% HP-β-CD). The compound to be assayed was mixed with an appropriate amount of vehicle for intravenous injection, vortexed and sonicated to prepare a clear solution of 0.5 mg/mL. The clear solution was filtered by a microporous membrane, and then ready for use. The vehicle in the oral group was 5% DMSO+95% (20% HP-β-CD). The compound to be assayed was mixed with the vehicle, vortexed and sonicated to prepare a solution of 0.3 mg/mL. Mice were administered 1 mg/kg intravenously or 3 mg/kg orally, and then whole blood was collected for a certain period. Plasma was prepared. The drug concentration was analyzed by LC-MS/MS method, and the pharmacokinetic parameters were calculated by Phoenix WinNonlin software (Pharsight, USA).

ERK2 kinase = ERK2 kinase (Homo sapiens (Human), UniProt P28482); experiment: ERK2 in vitro kinase activity assay (33P-ATP, MBP substrate, filter-binding); assay type: biochemical
Sequence of ERK2 kinase (P28482 whole entry): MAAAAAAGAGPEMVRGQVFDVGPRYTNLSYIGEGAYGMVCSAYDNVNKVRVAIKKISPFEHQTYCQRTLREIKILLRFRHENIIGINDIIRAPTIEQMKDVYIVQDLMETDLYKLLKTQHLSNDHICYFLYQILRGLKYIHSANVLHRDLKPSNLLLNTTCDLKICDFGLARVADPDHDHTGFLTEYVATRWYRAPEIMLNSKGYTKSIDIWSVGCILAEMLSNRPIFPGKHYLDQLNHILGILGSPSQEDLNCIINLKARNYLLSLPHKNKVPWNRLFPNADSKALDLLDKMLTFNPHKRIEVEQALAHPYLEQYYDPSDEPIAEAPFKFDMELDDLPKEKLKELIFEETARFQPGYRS
Protocol: as §1, §2, §3, §4

Sequence of ERK1 kinase (P27361 whole entry): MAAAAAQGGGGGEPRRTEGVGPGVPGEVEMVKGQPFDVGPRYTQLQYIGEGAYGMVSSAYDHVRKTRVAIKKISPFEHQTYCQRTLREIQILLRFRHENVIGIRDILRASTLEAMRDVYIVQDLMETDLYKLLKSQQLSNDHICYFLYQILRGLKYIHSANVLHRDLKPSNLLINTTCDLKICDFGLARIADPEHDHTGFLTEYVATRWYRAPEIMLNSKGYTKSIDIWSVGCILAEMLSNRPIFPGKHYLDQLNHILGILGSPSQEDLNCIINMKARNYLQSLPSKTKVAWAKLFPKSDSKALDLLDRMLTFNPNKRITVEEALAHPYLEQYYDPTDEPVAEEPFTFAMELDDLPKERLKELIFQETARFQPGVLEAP

Compound: Cc1cccc(CN2C(=O)c3nc(-c4nc(Nc5ccnn5C)ncc4C)sc3C23COC3)n1 [WX001]
- IC50 (ERK1 kinase): 1.4 nM
- clearance ([1]; dog, plasma, intravenous, 1 mg/kg intravenously or 3 mg/kg orally): 10.1 mL/min/kg
- Vd ([1]; dog, plasma, intravenous, 1 mg/kg intravenously or 3 mg/kg orally, read-out: Vdss): 1.29 L/kg
- half-life ([1]; dog, plasma, 1 mg/kg intravenously or 3 mg/kg orally): 209 min
- bioavailability ([1]; dog, plasma, 1 mg/kg intravenously, 3 mg/kg orally, oral bioavailability): 60%
- Cmax ([1]; dog, single dose, 1 mg/kg intravenously or 3 mg/kg orally, plasma): 1770 nM
- Oral DNAUC ([1]; 3 mg/kg orally, AUCPO/Dose): 2307.32 nM · h/mpk
- solubility at 24 h ([2]; 50 mM phosphate buffer pH 2.0, 24 hours, read-out: Solubility at pH = 2.0): 200 µM (≈ 94.7 µg/mL)
- solubility at 24 h ([2]; 50 mM phosphate buffer pH 6.5, 24 hours, read-out: Solubility at pH = 6.5): 2.94 µM (≈ 1.4 µg/mL)
- solubility at 24 h ([2]; 50 mM phosphate buffer pH 7.4, 24 hours, read-out: Solubility at pH = 7.4): 2.64 µM (≈ 1.25 µg/mL)
- Oral DNAUC (In vivo PK study in mice; 3 mg/kg orally, AUCPO/Dose): 2935 nM · h/mpk
- clearance (In vivo PK study in mice; mouse, plasma, intravenous, 1 mg/kg intravenously or 3 mg/kg orally): 18.9 mL/min/kg
- Vd (In vivo PK study in mice; mouse, plasma, intravenous, 1 mg/kg intravenously or 3 mg/kg orally, read-out: Vdss): 1.23 L/kg
- half-life (In vivo PK study in mice; mouse, plasma, 1 mg/kg intravenously or 3 mg/kg orally): 66 min
- bioavailability (In vivo PK study in mice; mouse, plasma, 1 mg/kg intravenously, 3 mg/kg orally, oral bioavailability): 154%
- Cmax (In vivo PK study in mice; mouse, single dose, 1 mg/kg intravenously or 3 mg/kg orally, plasma): 4.79 µM
- IC50 (ERK2 kinase): 0.54 nM
